pIC50: −log10 of the molar value.
Target: PI3Kgamma (Homo sapiens, UniProt P48736)
Assay: Biochemical PI3Kgamma (TR-FRET Adapta Universal Kinase Assay)
Conditions: mean of n measurements, read-out: PIK3g/ IC50
Protocol: Test compounds were dissolved in DMSO (10 mM) and transferred into 1.4 mL flat bottom or V-shaped Matrix tubes carrying a unique 2D matrix chip by individual Novartis compound hubs. The numbers of these chips were distinctively linked to Novartis Pharma Numbers. The stock solutions were stored at −20° C. if not used immediately. For the test procedure the vials were defrosted and identified by a scanner whereby a working sheet was generated that guided the subsequent working steps.
Compounds were either manually diluted in DMSO for individual experiments (96 wells enabling 10 cpds at 8 (single points) concentrations) as described in or prepared as described below if tested for profiling in 384-wells. This format enabled the assay of maximally 40 individual test compounds at 8 concentrations (single points) including 4 reference compounds. The dilution protocol included the production of “pre-dilution plates”, “master plates” and “assay plates”.
96 polypropylene well plates were used as pre-dilution plates. A total of 4 pre-dilution plates were prepared including 10 test compounds each on the plate positions A1-A10, one standard compound at A11 and one DMSO control at A12. Programs have been written to run these pipetting steps on the HamiltonSTAR robots.
100 μL of individual compound dilutions including standard compound and controls of the 4 “pre-dilution plates” were transferred into a 384 “master plate” including the following concentrations 1,820, 564, 182, 54.6, 18.2, 5.46, 1.82 and 0.546 μM, respectively in 90% DMSO.
Identical “assay plates” were then prepared by pipetting 50 nL each of compound dilutions of the “master plates” into 384-well “assay plates”. The compounds were mixed with 4.5 μL of assays components plus 4.5 μL enzyme corresponding to a 1:181 dilution enabling the final concentration of 10, 3.0, 1.0, 0.3, 0.1, 0.03, 0.01 and 0.003 μM, respectively. The preparation of the “master plates” was handled by the Matrix PlateMate Plus robot and replication of “assay plates” by the HummingBird robot.
The TR-FRET Adapta™ Universal Kinase Assay Kit was purchased from Invitrogen Corporation (Carlsbad/CA, USA) (Cat. No. PV5099). The kit contains the following reagents: Adapta Eu-anti-ADP Antibody (Europium labeled anti-ADP antibody in HEPES buffered saline, Cat. No. PV5097), Alexa Fluor® 647-labeled ADP tracer (Alexa Fluor® 647-labeled ADP tracer in HEPES buffered saline, Cat. No. PV5098), proprietary TR-FRET dilution buffer pH 7.5 (Cat. No. PV3574).
PIK3CD substrate Phosphatidylinositol was obtained from Invitrogen (vesicules consisting of 2 mM PI in 50 mM HEPES pH7.5; Cat. No. PV5371). PIK3CG substrate Phosphatidylinositol-4,5-bisphosphate (PIP(4,5)2 was obtained from Invitrogen (PIP2:PS large unilamellar vesicules consisting of 1 mM PIP2: 19 mM PS in 50 mM HEPES pH7.5, 3 mM MgCl2, 1 mM EGTA; Cat. No. PV5100).
Time-Resolved Fluorescence Resonance Energy Transfer (TR-FRET) is a technology based on energy transfer between two adjacent dyes, from an excited electron in one dye (the donor) to an electron of an adjacent dye (the acceptor) through resonance, then released as a photon. This energy transfer is detected by an increase in the fluorescence emission of the acceptor, and a decrease in the fluorescence emission of the donor. TR-FRET assays for protein kinases use a long-lifetime lanthanide Terbium or Europium chelates as the donor species which overcome interference from compound autofluorescence or light scatter from precipitated compounds, by introducing a delay after excitation by a flashlamp excitation source. Results are often expressed as a ratio of the intensities of the acceptor and donor fluorophores. The ratiometric nature of such a value corrects for differences in assay volumes between wells, as well as corrects for quenching effects due to colored compounds. The Adapta™ assay can be divided into two phases: a kinase reaction phase and an ADP detection phase. […]

PI3Kgamma, sequence (P48736 whole entry, species assumed): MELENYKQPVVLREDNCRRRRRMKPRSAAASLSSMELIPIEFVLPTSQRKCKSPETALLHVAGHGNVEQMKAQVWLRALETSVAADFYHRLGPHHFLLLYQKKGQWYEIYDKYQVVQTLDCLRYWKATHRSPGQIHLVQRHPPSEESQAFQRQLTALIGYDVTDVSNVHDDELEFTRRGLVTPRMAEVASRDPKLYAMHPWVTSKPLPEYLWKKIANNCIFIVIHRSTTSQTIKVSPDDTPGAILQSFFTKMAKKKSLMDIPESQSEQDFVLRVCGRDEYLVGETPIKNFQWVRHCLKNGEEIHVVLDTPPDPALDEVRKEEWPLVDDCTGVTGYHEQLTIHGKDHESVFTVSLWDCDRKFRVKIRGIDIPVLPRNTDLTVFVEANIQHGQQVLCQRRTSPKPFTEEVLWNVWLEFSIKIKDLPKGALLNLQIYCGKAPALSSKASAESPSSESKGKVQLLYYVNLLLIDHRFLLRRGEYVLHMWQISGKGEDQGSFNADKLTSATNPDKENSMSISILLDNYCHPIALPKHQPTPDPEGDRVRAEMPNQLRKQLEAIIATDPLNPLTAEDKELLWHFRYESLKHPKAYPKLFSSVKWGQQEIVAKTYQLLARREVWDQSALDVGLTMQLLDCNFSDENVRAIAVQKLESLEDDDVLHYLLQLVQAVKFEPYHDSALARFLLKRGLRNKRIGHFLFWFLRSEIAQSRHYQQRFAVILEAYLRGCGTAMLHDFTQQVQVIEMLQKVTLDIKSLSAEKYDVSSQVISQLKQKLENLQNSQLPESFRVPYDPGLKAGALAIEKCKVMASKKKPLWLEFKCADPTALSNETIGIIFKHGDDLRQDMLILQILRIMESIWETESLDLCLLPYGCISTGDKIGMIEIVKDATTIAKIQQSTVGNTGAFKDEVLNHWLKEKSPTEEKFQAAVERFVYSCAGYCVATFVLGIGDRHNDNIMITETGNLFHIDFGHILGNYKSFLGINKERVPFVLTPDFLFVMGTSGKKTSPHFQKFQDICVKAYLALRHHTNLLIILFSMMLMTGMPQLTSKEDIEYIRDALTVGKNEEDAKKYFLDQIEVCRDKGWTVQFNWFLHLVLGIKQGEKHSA

Structure (SMILES)	pIC50
COC[C@H]1COC(=O)N1c1cc(-c2cnc(N)nc2C(F)(F)F)nc(N2CCOCC2)n1 [Example 5, (S)-3-(2′-Amino-2-morpholin-4-yl-4′-trifluoromethyl-[4,5′]bipyrimidinyl-6-yl)-4-methoxymethyl-oxazolidin-2-one]	6.48
C[C@H]1OC(=O)N(c2cc(-c3cnc(N)nc3C(F)(F)F)nc(N3CCOCC3)n2)[C@H]1CO [Example 18, (4S,5R)-3-(2′-Amino-2-morpholin-4-yl-4′-trifluoromethyl-[4,5′]bipyrimidinyl-6-yl)-4-hydroxymethyl-5-methyl-oxazolidin-2-one]	6.60
Nc1ncc(-c2cc(N3C(=O)O[C@H]4CCCC[C@@H]43)nc(N3CCOCC3)n2)c(C(F)(F)F)n1 [Example 4, (3aS,7aS)-3-(2′-Amino-2-morpholin-4-yl-4′-trifluoromethyl-[4,5′]bipyrimidinyl-6-yl)-hexahydro-benzooxazol-2-one]	6.62
Nc1ncc(-c2cc(N3C(=O)OC4C(O)CCC43)nc(N3CCOCC3)n2)c(C(F)(F)F)n1 (single isomer, unassigned) [Example 22A]	6.96
C[C@H]1OC(=O)N(c2cc(-c3cnc(N)nc3C(F)(F)F)nc(N3CCOCC3)n2)[C@H]1COC=O [Example 12, Formic acid (4S,5R)-3-(2′-amino-2-morpholin-4-yl-4′-trifluoromethyl-[4,5′]bipyrimidinyl-6-yl)-5-methyl-2-oxo-oxazolidin-4-ylmethyl ester]	5.78
C[C@H]1[C@@H](CCO)OC(=O)N1c1cc(-c2cnc(N)nc2C(F)(F)F)nc(N2CCOCC2)n1 [Example 23, (4S,5R)-3-(2′-Amino-2-morpholino-4′-(trifluoromethyl)-[4,5′-bipyrimidin]-6-yl)-5-(2-hydroxyethyl)-4-methyloxazolidin-2-one]	6.68
[2H]C1([2H])OC([2H])([2H])C([2H])([2H])N(c2nc(-c3cnc(N)nc3C(F)(F)F)cc(N3C(=O)O[C@H](C)[C@@H]3CO)n2)C1([2H])[2H] [Example 8]	6.63
CC1(C)OC(=O)N(c2cc(-c3cnc(N)nc3C(F)(F)F)nc(N3CCOCC3)n2)[C@H]1CO [Example 2, (S)-3-(2′-Amino-2-morpholin-4-yl-4′-trifluoromethyl-[4,5′]bipyrimidinyl-6-yl)-4-hydroxymethyl-5,5-dimethyl-oxazolidin-2-one]	6.46
C[C@@H]1OC(=O)N(c2cc(-c3cnc(N)nc3C(F)(F)F)nc(N3CCOCC3)n2)[C@H]1CO [Example 6]	6.59
C[C@H]1[C@H](CO)OC(=O)N1c1cc(-c2cnc(N)nc2C(F)(F)F)nc(N2CCOCC2)n1 [Example 15, (4S,5R)-3-(2′-Amino-2-morpholin-4-yl-4′-trifluoromethyl-[4,5′]bipyrimidinyl-6-yl)-5-hydroxymethyl-4-methyl-oxazolidin-2-one]	6.47
C[C@H]1COC(=O)N1c1cc(-c2cnc(N)nc2C(F)(F)F)nc(N2CCOCC2)n1 [Example 1, (S)-3-(2′-Amino-2-morpholin-4-yl-4′-trifluoromethyl-[4,5′]bipyrimidinyl-6-yl)-4-methyl-oxazolidin-2-one]	6.56
C[C@H]1COCCN1c1nc(-c2cnc(N)nc2C(F)(F)F)cc(N2C(=O)OC[C@@H]2C)n1 [Example 13, (S)-3-[2′-Amino-2-((S)-3-methyl-morpholin-4-yl)-4′-trifluoromethyl-[4,5′]bipyrimidinyl-6-yl]-4-methyl-oxazolidin-2-one]	6.41
Nc1ncc(-c2cc(N3C[C@H](CO)OC3=O)nc(N3CCOCC3)n2)c(C(F)(F)F)n1 [Example 20, (R)-3-(2′-Amino-2-morpholin-4-yl-4′-trifluoromethyl-[4,5′]bipyrimidinyl-6-yl)-5-hydroxymethyl-oxazolidin-2-one]	6.22
Nc1ncc(-c2cc(N3C(=O)OC[C@@H]3CCO)nc(N3CCOCC3)n2)c(C(F)(F)F)n1 [Example 9, (S)-3-(2′-Amino-2-morpholin-4-yl-4′-trifluoromethyl-[4,5′]bipyrimidinyl-6-yl)-4-(2-hydroxy-ethyl)-oxazolidin-2-one]	5.95
C[C@H]1CN(c2cc(-c3cnc(N)nc3C(F)(F)F)nc(N3CCOCC3)n2)C(=O)O1 [Example 16, (S)-3-(2′-Amino-2-morpholin-4-yl-4′-trifluoromethyl-[4,5′]bipyrimidinyl-6-yl)-5-methyl-oxazolidin-2-one]	6.11
[2H]C1([2H])OC([2H])([2H])C([2H])([2H])N(c2nc(-c3cnc(N)nc3C(F)(F)F)cc(N3C(=O)OC[C@@H]3C)n2)C1([2H])[2H] [Example 17, (S)-3-(2′-amino-2-D8-morpholino-4′-(trifluoromethyl)-[4,5′-bipyrimidin]-6-yl)-4-methyloxazolidin-2-one]	6.48
C[C@H](O)CC1OC(=O)N(c2cc(-c3cnc(N)nc3C(F)(F)F)nc(N3CCOCC3)n2)[C@H]1C (single isomer, unassigned) [Example 25]	6.69
Nc1ncc(-c2cc(N3C[C@@H](CO)OC3=O)nc(N3CCOCC3)n2)c(C(F)(F)F)n1 [Example 14, (S)-3-(2′-Amino-2-morpholin-4-yl-4′-trifluoromethyl-[4,5′]bipyrimidinyl-6-yl)-5-hydroxymethyl-oxazolidin-2-one]	5.91
Nc1ncc(-c2cc(N3C(=O)O[C@@H]4[C@@H](O)CC[C@@H]43)nc(N3CCOCC3)n2)c(C(F)(F)F)n1 (racemic) [Example 22, (3aR*,6R*,6aR*)-3-(2′-Amino-2-morpholino-4′-(trifluoromethyl)-[4,5′-bipyrimidin]-6-yl)-6-hydroxyhexahydro-2H-cyclopenta[d]oxazol-2-one]	6.84
CC1(CO)COC(=O)N1c1cc(-c2cnc(N)nc2C(F)(F)F)nc(N2CCOCC2)n1 (racemic) [Example 3, 3-(2′-amino-2-morpholino-4′-(trifluoromethyl)-4,5′-bipyrimidin-6-yl)-4-(hydroxymethyl)-4-methyloxazolidin-2-one]	6.29
Nc1ncc(-c2cc(N3C(=O)O[C@H]4COC[C@H]43)nc(N3CCOCC3)n2)c(C(F)(F)F)n1 [Example 21, (3aR,6aR)-3-(2′-amino-2-morpholino-4′-(trifluoromethyl)-[4,5′-bipyrimidin]-6-yl)-tetrahydrofuro[3,4-d]oxazol-2(3H)-one]	6.43
C[C@H]1[C@@H](CO)OC(=O)N1c1cc(-c2cnc(N)nc2C(F)(F)F)nc(N2CCOCC2)n1 [Example 19, (4S,5S)-3-(2′-Amino-2-morpholin-4-yl-4′-trifluoromethyl-[4,5′]bipyrimidinyl-6-yl)-5-hydroxymethyl-4-methyl-oxazolidin-2-one]	6.74
C[C@H]1OC(=O)N(c2cc(-c3cnc(N)nc3C(F)(F)F)nc(N3CCOC[C@@H]3C)n2)[C@H]1CO [Example 10, (4S,5R)-3-[2′-Amino-2-((S)-3-methyl-morpholin-4-yl)-4′-trifluoromethyl-[4,5′]bipyrimidinyl-6-yl]-4-hydroxymethyl-5-methyl-oxazolidin-2-one]	6.80
Nc1ncc(-c2cc(N3CCOC3=O)nc(N3CCOCC3)n2)c(C(F)(F)F)n1 [Example 11, 3-(2′-Amino-2-morpholin-4-yl-4′-trifluoromethyl-[4,5′]bipyrimidinyl-6-yl)-oxazolidin-2-one, reference compound]	6.00
Nc1ncc(-c2cc(N3C(=O)OC4C(O)CCC43)nc(N3CCOCC3)n2)c(C(F)(F)F)n1 (single isomer, unassigned) [Example 22B]	6.39

Reference: US8865894B2, “Oxazolidin-2-one compounds and uses thereof” (Novartis AG, priority 2012, dated 2014)
